Reference: PubChem BioAssay (NCI)
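Dose response: 5 concentrations. Exposure: 48 h. Format: 96-well plates. Endpoint: linear interpolation; highest concentration if not reached. The concentration for 50% growth inhibition is given as GI50. TGI is the concentration that stops growth completely.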

How the values were obtained:
Test in all cases: NCI tumour cell line growth inhibition, 48 h
HCT-116 colon = test system: HCT-116 colon
HL-60(TB) leukemia = test system: HL-60(TB) leukemia
HOP-18 NSCLC = test system: HOP-18 NSCLC
M19-MEL melanoma = test system: M19-MEL melanoma
SNB-75 CNS = test system: SNB-75 CNS
SW-620 colon = test system: SW-620 colon
U251 CNS = test system: U251 CNS
UACC-257 melanoma = test system: UACC-257 melanoma
SK-OV-3 ovarian = test system: SK-OV-3 ovarian
T-47D breast = test system: T-47D breast

Row | Structure (SMILES) | TGI (HCT-116 colon) | TGI (HL-60(TB) leukemia) | TGI (HOP-18 NSCLC) | TGI (M19-MEL melanoma) | TGI (SNB-75 CNS) | TGI (SW-620 colon) | TGI (U251 CNS) | TGI (UACC-257 melanoma) | TGI (SK-OV-3 ovarian) | TGI (T-47D breast) | GI50 (HCT-116 colon) | GI50 (HL-60(TB) leukemia) | GI50 (SK-OV-3 ovarian) | GI50 (SNB-75 CNS) | GI50 (SW-620 colon) | GI50 (T-47D breast) | GI50 (U251 CNS) | GI50 (UACC-257 melanoma)
1 | NC1=NC(=O)C(CC(=O)Nc2ccc([N+](=O)[O-])cc2[N+](=O)[O-])S1 (stereo unspecified) | > 100 µM | > 100 µM | > 100 µM | > 100 µM | > 100 µM | > 100 µM | > 100 µM | > 100 µM |  |  |  |  |  |  |  |  |  | 
2 | Clc1ccc(CNc2nc3ccccc3nc2-c2cccs2)c(Cl)c1 | > 100 µM | > 100 µM | > 100 µM | > 100 µM |  | > 100 µM | > 100 µM | > 100 µM |  |  |  |  |  |  |  |  |  | 
3 | Oc1c(Br)cc(CN(Cc2cc(Br)c(O)c(Br)c2)C2CCCCC2)cc1Br | > 100 µM | > 100 µM |  |  | > 100 µM | > 100 µM | > 100 µM | > 100 µM | > 100 µM | > 100 µM |  |  |  |  |  |  |  | 
4 | CN1CCN(Cc2ccc(NC(=O)c3ccc(C(C)(C)C)c(C#Cc4cnc5cccnn45)c3)cc2C(F)(F)F)CC1 | 3.08 µM | 6.5 µM |  |  | 3.09 µM | 4.09 µM | 3.62 µM | 3.68 µM | 24.4 µM | 5.41 µM | 1.67 µM | 2.62 µM | 11.3 µM | 1.59 µM | 2.04 µM | 2.02 µM | 1.97 µM | 1.89 µM
5 | O=C1CCn2c([nH]c3cccc4cccc2c43)=N1 | > 100 µM | > 100 µM |  | > 100 µM | > 100 µM | > 100 µM | > 100 µM | > 100 µM | > 100 µM |  |  |  |  |  |  |  |  | 
6 | CNC(=O)c1cn(C[C@H](F)CCc2ccc(NC(=O)Cc3cc(OC4CC(F)(F)C4)cc(C)n3)nn2)nn1 | > 100 µM | > 100 µM |  |  | > 100 µM | > 100 µM | > 100 µM | > 100 µM | > 100 µM | > 100 µM | > 100 µM | > 100 µM | > 100 µM | > 100 µM | > 100 µM | > 100 µM | 0.102 µM | > 100 µM
7 | Cc1c(-c2nc(N)nc(C3CC3)c2C)nc(N)nc1C1CC1 | > 100 µM | > 100 µM |  |  | > 100 µM | > 100 µM | > 100 µM | > 100 µM | > 100 µM | > 100 µM |  |  |  |  |  |  |  | 
8 | CNc1nc(NC2CCCC2)nc(Sc2ccc(OC)cc2)n1 | > 10 µM | > 10 µM |  |  | > 10 µM | > 10 µM | > 10 µM | > 10 µM | > 10 µM | > 10 µM | > 10 µM | > 10 µM | > 10 µM | > 10 µM | > 10 µM | > 10 µM | > 10 µM | > 10 µM
9 | FC(F)(F)c1ccc2c(Nc3cccc(C4CC(c5ccccc5)=NN4c4ccc(Cl)cc4)c3)ccnc2c1 (stereo unspecified) | 3.63 µM | 18.8 µM |  |  | 20.8 µM | 8.34 µM | 14.4 µM | 32.6 µM | 36.4 µM | 37.4 µM | 1.62 µM | 4.04 µM | 11.2 µM | 2.67 µM | 2.79 µM | 5.93 µM | 3.24 µM | 11.2 µM
10 | Clc1ccc(OCc2nnc3n2N=C(c2ccc(Cl)cc2Cl)CS3)c(Cl)c1 | 32.8 µM | > 100 µM |  |  | 48.7 µM | > 100 µM | 46.8 µM | 52 µM | > 100 µM | > 100 µM | 15.2 µM | 35.6 µM | 43 µM | 12.2 µM | 31.3 µM | 33 µM | 18.7 µM | 24 µM
11 | CC(O)CN1C(=O)NC(Cc2ccccc2)C1=O (stereo unspecified) |  | > 100 µM | > 100 µM |  | > 100 µM | > 100 µM | > 100 µM | > 100 µM |  |  |  |  |  |  |  |  |  | 
12 | CN(C)CCNC(=O)Nc1c(C#N)[n+]([O-])c2cc(Cl)c(Cl)cc2[n+]1[O-] | > 100 µM | > 100 µM |  |  | > 100 µM | 69.7 µM | > 100 µM | > 100 µM | 97.7 µM | > 100 µM | 13.4 µM | 27.2 µM | 21.1 µM | 14.7 µM | 17.4 µM | 14.6 µM | 14.5 µM | 36.5 µM
13 | Oc1c2c(c(O)c3ccccc13)=N[C@@H](c1ccccc1)[C@H](c1ccccc1)N=2 | > 100 µM | > 100 µM |  | > 100 µM | > 100 µM | > 100 µM | > 100 µM | > 100 µM | > 100 µM |  |  |  |  |  |  |  |  | 
14 | CN1CCN(C)C1c1cccc(C2N(C)CCN2C)c1 | > 100 µM | > 100 µM |  | > 100 µM | > 100 µM |  | > 100 µM |  | > 100 µM |  |  |  |  |  |  |  |  | 
15 | NCCN1CCN(c2nccc(-c3ccc4ccccc4c3)n2)CC1 | 3.3 µM | 5.76 µM |  |  | 2.9 µM | 3.61 µM | 3.52 µM | 3.41 µM | 5.34 µM | 4.59 µM | 1.79 µM | 2.23 µM | 2.1 µM | 1.41 µM | 1.83 µM | 1.88 µM | 1.85 µM | 1.86 µM
16 | COc1cc(-c2cn(C)c(=O)c(C)c2C)cc(OC)c1CN1CC[C@H](N2CCN(c3ccc(N[C@H]4CCC(=O)NC4=O)cc3F)CC2)C(F)(F)C1 | 27.7 µM | > 100 µM |  |  | 21.9 µM | 38 µM | 29.6 µM | 24.2 µM | 36.2 µM | 49.3 µM | 13.1 µM | 2.92 µM | 18.4 µM | 5.2 µM | 17.9 µM | 14.3 µM | 13.6 µM | 10.5 µM
17 | COc1cc2c3c(n(CCCN4CCC(N)CC4)c(=O)c2cc1OC)-c1cc2c(cc1C3=O)OCO2 | 0.807 µM | 7.87 µM |  |  | 5.56 µM | 1.43 µM | 0.945 µM | 17.9 µM | 13.2 µM | 4 µM | 0.119 µM | 4.04 µM | 3.47 µM | 0.89 µM | 0.447 µM | 1.06 µM | 0.307 µM | 7.9 µM
18 | O=c1c2ccccc2c2c3c1cccc3c1cccc3c(=O)c4ccccc4c2c31 | > 100 µM |  | > 100 µM | > 100 µM | > 100 µM | > 100 µM | > 100 µM | > 100 µM | > 100 µM |  |  |  |  |  |  |  |  | 
